From ChEMBL document CHEMBL1201862, “PubChem BioAssay data set” (2004)
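Test compounds were applied to cells in 96-well plates for 48 hours at 5 doses. GI50 = concentration required for 50% inhibition of growth.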 The source made the active and inactive calls. Rule as the data show it: active = GI50 up to about 1.1 µM and inactive = higher.

Tests used:
Test in all cases: DTP human tumour cell line panel, 48 h
MDA-MB-435 = test system: MDA-MB-435
SNB-19 = test system: SNB-19
M14 = test system: M14
NCI-H23 = test system: NCI-H23
SN12C = test system: SN12C
TK-10 = test system: TK-10
ACHN = test system: ACHN
NCI-H226 = test system: NCI-H226
LOX IMVI = test system: LOX IMVI
MCF7 = test system: MCF7
U-251 = test system: U-251
K562 = test system: K562
RXF 393 = test system: RXF 393
SK-MEL-2 = test system: SK-MEL-2
PC-3 = test system: PC-3
Malme-3M = test system: Malme-3M
NCI-H522 = test system: NCI-H522
UO-31 = test system: UO-31
SF-539 = test system: SF-539
NCI-H460 = test system: NCI-H460

Measured: GI50

Cc1ccc(SCN2CCCCC2)cc1.O=C(Cl)c1ccc([N+](=O)[O-])cc1
inactive: MDA-MB-435 10.1 µM | SNB-19 19.2 µM | M14 17.8 µM | NCI-H23 8.22 µM | SN12C 4.31 µM | TK-10 19.4 µM | ACHN 12.6 µM | NCI-H226 16.6 µM | LOX IMVI 2.97 µM | MCF7 6.55 µM | U-251 11.2 µM | K562 13.8 µM | RXF 393 6.15 µM | SK-MEL-2 14.7 µM | PC-3 12.2 µM | Malme-3M 13.1 µM | NCI-H522 1.92 µM | UO-31 15.2 µM

CC(C)(C)c1ccc(O)c(CN(Cc2cc(C(C)(C)C)ccc2O)c2ccccc2)c1
inactive: MDA-MB-435 16.2 µM | SNB-19 16.4 µM | M14 14.4 µM | NCI-H23 21.1 µM | SF-539 17.6 µM | SN12C 17.7 µM | TK-10 17.1 µM | ACHN 16.6 µM | LOX IMVI 13.7 µM | MCF7 18.8 µM | U-251 15.1 µM | K562 11.6 µM | NCI-H460 16.5 µM | RXF 393 13.6 µM | SK-MEL-2 17.6 µM | PC-3 17.9 µM | Malme-3M 15.8 µM | NCI-H522 13.3 µM | UO-31 14.4 µM

O=C(O)c1cscc1Cc1cccs1
inactive: MDA-MB-435 > 100 µM | SNB-19 > 100 µM | M14 > 100 µM | NCI-H23 > 100 µM | SF-539 > 100 µM | SN12C > 100 µM | TK-10 > 100 µM | ACHN > 100 µM | NCI-H226 23.5 µM | LOX IMVI > 100 µM | MCF7 > 100 µM | U-251 > 100 µM | K562 > 100 µM | NCI-H460 > 100 µM | RXF 393 > 100 µM | SK-MEL-2 > 100 µM | PC-3 > 100 µM | Malme-3M > 100 µM | NCI-H522 > 100 µM

Cc1cc2c(c(C(=O)NCCC(=O)O)c1)Oc1c(cc(C)cc1C(=O)NCCC(=O)O)S2
inactive: MDA-MB-435 > 100 µM | SNB-19 > 100 µM | M14 > 100 µM | NCI-H23 > 100 µM | SF-539 > 100 µM | SN12C > 100 µM | TK-10 > 100 µM | ACHN > 100 µM | NCI-H226 > 100 µM | LOX IMVI > 100 µM | MCF7 > 100 µM | U-251 > 100 µM | K562 > 100 µM | RXF 393 > 100 µM | SK-MEL-2 > 100 µM | PC-3 > 100 µM | Malme-3M > 100 µM | NCI-H522 > 100 µM

Cc1ccc(N(C)S(=O)(=O)c2ccccc2)cc1
inactive: MDA-MB-435 74 µM | SNB-19 > 100 µM | M14 > 100 µM | NCI-H23 95.5 µM | SF-539 > 100 µM | SN12C > 100 µM | TK-10 > 100 µM | ACHN > 100 µM | NCI-H226 > 100 µM | LOX IMVI > 100 µM | MCF7 > 100 µM | U-251 > 100 µM | K562 34.8 µM | NCI-H460 87.9 µM | RXF 393 29.5 µM | SK-MEL-2 > 100 µM | PC-3 36.2 µM | Malme-3M > 100 µM | NCI-H522 > 100 µM | UO-31 > 100 µM

CCN(CCO)CC1COc2ccccc2O1 (stereo unspecified)
inactive: MDA-MB-435 > 100 µM | M14 > 100 µM | NCI-H23 > 100 µM | SF-539 > 100 µM | SN12C > 100 µM | TK-10 > 100 µM | ACHN > 100 µM | NCI-H226 > 100 µM | LOX IMVI > 100 µM | MCF7 > 100 µM | U-251 > 100 µM | K562 > 100 µM | NCI-H460 > 100 µM | RXF 393 > 100 µM | PC-3 > 100 µM | Malme-3M > 100 µM | NCI-H522 > 100 µM | UO-31 > 100 µM

Cc1ccc(C[N+](C)(C)N)cc1C
inactive: MDA-MB-435 > 10 µM | SNB-19 > 10 µM | M14 > 10 µM | NCI-H23 > 10 µM | SF-539 > 10 µM | SN12C > 10 µM | TK-10 > 10 µM | ACHN > 10 µM | NCI-H226 > 10 µM | LOX IMVI > 10 µM | MCF7 > 10 µM | U-251 > 10 µM | K562 > 10 µM | NCI-H460 > 10 µM | RXF 393 > 10 µM | PC-3 > 10 µM | Malme-3M > 10 µM | NCI-H522 > 10 µM | UO-31 > 10 µM
